What was measured:
CCRF-CEM [1] = test: Cytotoxicity against human CCRF-CEM cells after 3 days by XTT assay; format: functional, cell-based; details: 72 h
[2] = Cytotoxicity against human HeLaS3 cells after 3 days by XTT assay; format: functional, cell-based; details: HeLa S3, 72 h
HCT-116 = test: Cytotoxicity against human HCT116 cells after 5 days by SRB assay; format: functional; details: HCT-116, 120 h
HepG2 = test: Cytotoxicity against human HepG2 cells after 3 days by XTT assay; format: functional, cell-based; details: HepG2, 72 h
[3] = Chemical stability of the compound assessed as specific activity per ug at 30 uM after 30 mins in presence of purified carboxylesterase 2; format: physicochemical; details: isolated protein, 0.5 h
[4] = Chemical stability of the compound assessed as specific activity per ug at 30 uM after 30 mins in presence of purified carboxylesterase 1; format: physicochemical; details: isolated protein, 0.5 h
DU-145 = test: Cytotoxicity against human DU145 cells after 5 days by SRB assay; format: functional; details: DU-145, 120 h
HL-60 = test: Cytotoxicity against human HL60 cells after 5 days by SRB assay; format: functional; details: HL-60, 120 h
[5] = Cytotoxicity against human Hs578 cells after 5 days by SRB assay; format: functional; details: Hs578, 120 h
[6] = Chemical stability of the compound assessed as specific activity per ug at 30 uM after 30 mins in presence of purified cathepsin A; format: physicochemical; details: 0.5 h
NCI-H23 = test: Cytotoxicity against human NCI-H23 cells after 5 days by SRB assay; format: functional; details: NCI-H23, 120 h
CCRF-CEM [7] = test: Cell cycle arrest in human CCRF-CEM cells assessed as increased of cellular debris level at IC50 concentration using propidium iodide staining by flow cytometry relative to control; format: functional
CCRF-CEM [8] = test: Cell cycle arrest in human CCRF-CEM cells assessed as accumulation at S phase at IC50 concentration using propidium iodide staining by flow cytometry relative to control; format: functional
CCRF-CEM [9] = test: Cell cycle arrest in human CCRF-CEM cells assessed as accumulation at G2/M phase at IC50 concentration using propidium iodide staining by flow cytometry relative to control; format: functional
CCRF-CEM [10] = test: Cell cycle arrest in human CCRF-CEM cells assessed as accumulation at G1 phase at IC50 concentration using propidium iodide staining by flow cytometry relative to control; format: functional

SMILES	IC50 (CCRF-CEM [1]) [µM]	IC50 [2] [µM]	GI50 (HCT-116) [µM]	IC50 (HepG2) [µM]	Stability [3] [pmol/min]	Stability [4] [pmol/min]	GI50 (DU-145) [µM]	GI50 (HL-60) [µM]	GI50 [5] [µM]	Stability [6] [pmol/min]	GI50 (NCI-H23) [µM]	Activity (CCRF-CEM [7]) [%]	Activity (CCRF-CEM [8]) [%]	Activity (CCRF-CEM [9]) [%]	Activity (CCRF-CEM [10]) [%]
COC(=O)[C@H](C)NP(=O)(OC[C@H]1O[C@@H](n2ccc3c(-c4ccco4)ncnc32)[C@H](O)[C@@H]1O)Oc1ccccc1 (stereo not given in full)	3.44	1.4	1.03	1.2	0	86	1.19	3.31	2.31	1249	4.63				
CCOC(=O)[C@H](C)NP(=O)(OC[C@H]1O[C@@H](n2ccc3c(-c4cccc5c4oc4ccccc45)ncnc32)[C@H](O)[C@@H]1O)Oc1ccccc1 (stereo not given in full)	> 10	> 10	> 10	> 10				> 10	> 10						
COC(=O)[C@H](C)NP(=O)(OC[C@H]1O[C@@H](n2ccc3c(-c4cccc5c4oc4ccccc45)ncnc32)[C@H](O)[C@@H]1O)Oc1ccccc1 (stereo not given in full)	> 10	> 10	> 10	> 10				> 10	> 10						
C[C@H](NP(=O)(OC[C@H]1O[C@@H](n2ccc3c(-c4ccccc4)ncnc32)[C@H](O)[C@@H]1O)Oc1ccccc1)C(=O)OCc1ccccc1 (stereo not given in full)	> 10	> 10	> 10	> 10				5.65	> 10						
COC(=O)[C@H](C)NP(=O)(OC[C@H]1O[C@@H](n2ccc3c(-c4ccoc4)ncnc32)[C@H](O)[C@@H]1O)Oc1ccccc1 (stereo not given in full)	> 10	7.84	7.95	3.61			3.86	> 10	> 10		> 10				
CCOC(=O)[C@H](C)NP(=O)(OC[C@H]1O[C@@H](n2ccc3c(-c4ccccc4)ncnc32)[C@H](O)[C@@H]1O)Oc1ccccc1 (stereo not given in full)	> 10	> 10	> 10	> 10				> 10	> 10						
CCOC(=O)[C@H](C)NP(=O)(OC[C@H]1O[C@@H](n2ccc3c(-c4ccoc4)ncnc32)[C@H](O)[C@@H]1O)Oc1ccccc1 (stereo not given in full)	> 10	4.89	9.06	2.96			9.05	> 10	5.97		8.28				
OC[C@H]1O[C@@H](n2ccc3c(-c4ccco4)ncnc32)[C@H](O)[C@@H]1O				0.47				0.81							
C[C@H](NP(=O)(OC[C@H]1O[C@@H](n2ccc3c(-c4ccsc4)ncnc32)[C@H](O)[C@@H]1O)Oc1ccccc1)C(=O)OCc1ccccc1 (stereo not given in full)	> 10	5.45	7.51	4.58			3.57	> 10	7.56		7.44	22.2	54.2	9.9	35.9
CCOC(=O)[C@H](C)NP(=O)(OC[C@H]1O[C@@H](n2ccc3c(-c4ccco4)ncnc32)[C@H](O)[C@@H]1O)Oc1ccccc1 (stereo not given in full)	3.34	1.02	2.5	1.42	0	149	2.29	4.86	2.18	11989	2.87	42.5	55.3	18.06	26.6
COC(=O)[C@H](C)NP(=O)(OC[C@H]1O[C@@H](n2ccc3c(-c4ccccc4)ncnc32)[C@H](O)[C@@H]1O)Oc1ccccc1 (stereo not given in full)	> 10	> 10	> 10	> 10			> 10	> 10	> 10		> 10				
OC[C@H]1O[C@@H](n2ccc3c(-c4ccsc4)ncnc32)[C@H](O)[C@@H]1O				3.22				> 40							

— ChEMBL document CHEMBL1641589, “Phosphoramidate pronucleotides of cytostatic 6-aryl-7-deazapurine ribonucleosides” (Bioorg Med Chem, 2011)
